Here are results for one compound from patent US20260216328A1, “DISRUPTABLE LINKER COMPOSITIONS, SWITCHABLE BISPECIFIC T CELL NANOENGAGER (SWITCH-BITE) COMPOSITIONS COMPRISING THE SAME, AND METHODS OF USE THEREOF” (The Trustees of the University of Pennsylvania, priority 2023, published 2026).

Series [1] relates to Raji-Luc-GFP tumour cells. Kind of series: Humanized immune system mice with liver CD19 and Raji-Luc-GFP tumour. Conditions: AMD i.v. at day 7 after SiTE.
Series [2] deals with E0771-HER2 tumour. Kind of series: E0771-HER2 tumour model with HER2 expression in the liver (on-target, off-tumour toxicity). The protocol: FIG. 26A: mouse model with expression of human HER2 antigen in the liver was constructed using a piggyback transposon system delivered via lipid nanoparticles (LNPs) encapsulating two plasmids, pCMV-hyPBase and pPB7 TBG.human HER2.P2A.IRFP720, at day −30. At day 0, 10^6 E0771-HER2 tumour cells were injected s.c. into the right flank at day 0. […] FIGS. 26B-26D: mouse tumour growth curves, measurements of mouse body weight, and survival curves, respectively. n=8 mice. P value in FIG. 26D was determined using Log-rank (Mantel-Cox) test. […] FIGS. 26E-26K: measurements of markers for inflammation and toxicity including AST, ALT, TNF-α, IFN-γ, and IL-2 levels in mouse blood at different time points. n=3 mice. […] H&E staining was conducted to detect liver damage in different groups. Scale bar: […]. […] Blue: DAPI: Red, CD3^+ T cells. […] (n=5).
T cell infiltration in the liver was measured using flow (FIG. 27A). FIG. 27B: liver T cells in different treatment groups at day 13. […] P values were indicated in FIGS. 27B-27C, analyzed by two-tailed unpaired Student's t-test. n=3.
Recently, a mouse model was reported with stable human HER2 antigen expression in the mouse liver. […] Here, the construction of this mouse model was modified and two plasmids were delivered using a lipid nanoparticle (FIGS. 25A-25D). […] Next, a E0771-HER2 tumour model was constructed in mice with HER2 expression in the liver (FIG. 26A). […] The mice were then monitored for tumour growth, body weight, and survival (FIGS. 26B-26D).

For series [3], the system named is E0771-HER2 cells and primary mouse T cells. Put plainly: T cell-tumour cell engagement by confocal microscopy. Format: cell-based. The protocol: E0771-HER2 cells were labeled with CSFE-green and primary T cells were labelled with CFSE-red. The two cells were co-cultured and then treated with PBS or SiTE for 2 h. After that, the cells were observed by confocal imaging. T cell to T cell interactions and T cell to tumour cell interactions were counted manually by taking 10 images for quantification.
After synthesis and characterization of the AMD-responsive SiTE, the ability of SiTE to induce tumour cell-T cell engagement and tumour cell lysis was tested (FIG. 11A). E0771-HER2 cells were incubated with primary mouse T cells at a 1:1 ratio. Cells were then treated with SiTEs at varying concentrations for 4 h and observed under confocal laser scanning microscopy (CLSM) (FIG. 11B). In the untreated control group, cancer cells and T cells were randomly distributed with few T cells and cancer cells engaged. However, in groups receiving 5 ng/mL of SiTE, ~10% of T cells were engaged with tumour cells, and this rate increased to ~90% when cells were treated with 20 ng/mL of SiTE. […] To ensure the specificity of this engagement. […] Since the SiTE contains >20 Fabs, it is possible that it may induce T cell-to-T cell engagement and induce cytokine release. […] After 24 h, mouse blood was collected and the T cell crosslinking levels and IL-6 and TNF-α levels were measured. […]

The subject of series [4] is E0771-HER2 tumour. Put plainly: AMD-mediated in vivo disassembly of SiTE-Cy7 (Cy7 signal in tumour). On the set-up: species or system mouse. Conditions: 18 h post-SiTE-Cy7, read 6 h later. The protocol:
FIGS. 19A-19C: SiTE was labeled with Cy7 dye (Cy7 was labeled on CD3 Fab) and was i.v. injected to tumour-bearing mice at 0 h. Then. PBS. […] 6 h later, mice were euthanized and the Cy7 signal in different organs and tumour was measured using IVIS. […] FIG. 19E: quantification of the fluorescence in tumour tissues in a-c. Data was shown as mean±SD (n=3), statistical differences were analyzed using two-tailed unpaired Student's t-test. […] SiTE-Cy7 was i.v. infused into tumour bearing mice at 0 h. […] After 24 h, mice were euthanized and the Cy7 signal distribution in major organs and mice body was observed. Cy7 signal was detected in the spleen, kidney and bladder.
Next, determination as to whether AMD can be used to break down the SiTE in vivo was sought. Cy7 was modified to the CD3 Fab and the Fab assembled with HER2 Fab to formulate SiTE-Cy7. SiTE-Cy7 was i.v. injected to E0771-HER2 tumour-bearing mice at 0 h. […] Mice were euthanized 6 h later and the Cy7 signal in different organs and tumour was measured using an in vivo imaging system (IVIS). […] Most supramolecular chemistry-based strategies for controllable chemotherapeutic release have only been tested in in vitro studies, and only a few in vivo controllable drug release strategies have been reported in this space. […]

With `NC12CC3CC(CC(C3)C1)C2` [AMD, adamantan-1-amine], the “liver enzyme and cytokine levels in blood” value in series [1] is “greatly decrease the liver enzyme levels and cytokine levels in blood”. The body weight result in series [2] (100 μg AMD on day 13 after SiTE) was “gradual increases in body weight and recovered to a normal range”. Also, the “ALT and AST levels in blood” value in series [2] (24 h after AMD infusion following SiTE) was “returned to lower levels”. For the same compound, in series [2] (AMD infusion after SiTE treatment), the “T cells in liver tissue” value is given as “greatly decreased the number of T cells in liver tissue”. Further, the “separation of conjugated cells” value was ~ 40% in series [3] (100 ng/mL AMD after 20 ng/mL SiTE for 4 h) and roughly 100% in series [3] (1 μg/mL AMD after 20 ng/mL SiTE for 4 h). In series [4] (AMD dispersed in 5% polyoxyethylene castor oil), the “Cy7 signal decrease compared to PBS treatment” value was “over 78%”. Also, in series [4] (AMD dispersed in PBS), the “decrease in Cy7 signal in the tumour” value is given as roughly 46%.
